For 2 molecules, GI50 and IC50 results are on record in article PMC9721423, “Novel benzo chromene derivatives: design, synthesis, molecular docking, cell cycle arrest, and apoptosis induction in human acute myeloid leukemia HL-60 cells” (Journal of Enzyme Inhibition and Medicinal Chemistry, 2022).

One assay has as its system SW-620. The assay can be described thus: cells. Also noted: species or system NCI-60 human tumour cell lines; NCI-60 five-dose growth inhibition screen, sulforhodamine B protein stain. The following applies: Homo sapiens, SW-620, 48 h. The procedure, abridged: (§1)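 NCI60 protocol: compounds (DMSO:glycerol stocks) tested at a single concentration of 10^−5 M for 48 h, growth read by sulforhodamine B protein staining as percent growth. For selected compounds, dose–response curves gave GI50, TGI and LC50; selectivity taken as full-panel MG-MID divided by subpanel MG-MID.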

A further assay relates to HL-60(TB). The assay can be described thus: cells. On the set-up: species or system NCI-60 human tumour cell lines; NCI-60 five-dose growth inhibition screen, sulforhodamine B protein stain. The following applies: Homo sapiens, HL-60, 48 h. The procedure, abridged:
as §1

A further assay has as its system HCC-2998. Nature of the assay: cells. Also noted: species or system NCI-60 human tumour cell lines; NCI-60 five-dose growth inhibition screen, sulforhodamine B protein stain. The following applies: Homo sapiens, HCC 2998, 48 h. In a few lines: as §1
For a further assay, the system named is UO-31. The assay can be described thus: cells. On the set-up: species or system NCI-60 human tumour cell lines; NCI-60 five-dose growth inhibition screen, sulforhodamine B protein stain. The following applies: Homo sapiens, UO-31, 48 h; read-out: GI50 5a. In a few lines:
as §1

A further assay concerns TK-10. The assay can be described thus: cells. Also noted: species or system NCI-60 human tumour cell lines; NCI-60 five-dose growth inhibition screen, sulforhodamine B protein stain. Particulars: Homo sapiens, TK-10, 48 h; read-out: GI50 5a. The procedure, abridged: as §1
Another assay relates to UACC-257. The assay can be described thus: cells. On the set-up: species or system NCI-60 human tumour cell lines; NCI-60 five-dose growth inhibition screen, sulforhodamine B protein stain. The following applies: Homo sapiens, UACC-257, 48 h; read-out: GI50 5a. In a few lines:
as §1

The test system of another assay is SK-MEL-28. The assay can be described thus: cells. Also noted: species or system NCI-60 human tumour cell lines; NCI-60 five-dose growth inhibition screen, sulforhodamine B protein stain. Particulars: Homo sapiens, SK-MEL-28, 48 h. In a few lines: as §1
Another assay relates to OVCAR-4. The assay can be described thus: cells. Particulars: Homo sapiens, OVCAR-4, 48 h; read-out: GI50 5a. Also noted: species or system NCI-60 human tumour cell lines; NCI-60 five-dose growth inhibition screen, sulforhodamine B protein stain. The procedure, abridged: as §1
A further assay deals with T1, CDK-2 (Homo sapiens, UniProt P24941).
T1 construct: gene CDK2; with cyclin A2
The assay can be described thus: Kinase-Glo MAX luminescence kinase assay, CDK-2/cyclin A2 kit. The format is biochemical. The following applies: read-out: CDK-2/ cyclin A2 IC50 (μM) ± SD.

Like-named read-outs stand apart in the source and are kept apart here.

Turning to `N=C(NO)C1=C(N)Oc2c(ccc3ccccc23)C1c1ccccc1` (centres unmarked) [5a, 2-Amino-4-phenyl-N-hydroxy-4H-benzo[h]chromene-3-carboxamidine], the GI50 was found to be 170 nM in the assay on SW-620 (read-out: GI50 5a); 240 nM in the assay on HL-60(TB) (read-out: GI50 5a); 370 nM with HCC-2998 (read-out: GI50 5a); 440 nM in the assay on UO-31; 16800 nM in the assay on TK-10; 18100 nM in the assay on UACC-257. Moreover, the GI50 came to 11800 nM in the assay with SK-MEL-28 (read-out: GI50 5a) and 760 nM with OVCAR-4. In addition, on CDK-2, the IC50 amounted to 0.171 µM.

For the molecule `CC(=O)NC1=C(C#N)C(c2ccccc2)c2ccc3ccccc3c2O1` (centres unmarked) [6a, N-(3-Cyano-4-phenyl-4H-benzo[h]chromen-2-yl)acetamide], the GI50 in the assay with SW-620 (read-out: GI50 6a) was 410 nM; in the assay on HL-60(TB) (read-out: GI50 6a), 290 nM; in the assay with HCC-2998 (read-out: GI50 6a) it was 1430 nM; in the assay on SK-MEL-28 (read-out: GI50 6a) it was 860 nM. Further, the IC50 on CDK-2 was 0.301 µM.
